In patent US20230382925A1, “MODULATORS OF CYSTIC FIBROSIS TRANSMEMBRANE CONDUCTANCE REGULATOR” (VERTEX PHARMACEUTICALS INCORPORATED, priority 2020, published 2023):
Like-named read-outs stand apart in the source and are kept apart here.

How the values were obtained:
CFTR [1] = molecular target: T1, CFTR (Homo sapiens, UniProt P13569); assay: Membrane Potential Dye, Enteroid Assay A; format: cell-based; conditions: for EC50: read-out: Ent. A EC50
Description: Base medium (ADF+++) consisted of Advanced […], 2 mM Glutamax, 10 mM HEPES, 1 μg/mL penicillin/streptomycin.
Intestinal enteroid maintenance medium (IEMMN) consisted of ADF+++, 1× B27 supplement, 1× N2 supplement, 1.25 mM N-acetyl cysteine, 10 mM Nicotinamide, 50 ng/mL hEGF, 10 nM Gastrin, 1 μg/mL hR-spondin-1, 100 ng/mL hNoggin, TGF-b type 1 inhibitor A-83-01, 100 μg/mL Primocin, 10 μM P38 MAPK inhibitor SB202190.
Bath 1 Buffer consisted of 1 mM MgCl2, 160 mM NaCl, 4.5 mM KCl, 10 mM HEPES, 10 mM Glucose, 2 mM CaCl2).
Chloride Free Buffer consisted of 1 mM Magnesium Gluconate, 2 mM Calcium Gluconate, 4.5 mM Potassium Gluconate, 160 mM Sodium Gluconate, 10 mM HEPES, 10 mM Glucose.
Bath 1 Dye Solution consisted of Bath 1 Buffer, 0.04% Pluronic F127, 20 μM Methyl Oxonol, 30 μM CaCCinh-A01, 30 μM Chicago Sky Blue.
Chloride Free Dye Solution consisted of Chloride Free Buffer, 0.04% Pluronic F127, 20 μM Methyl Oxonol, 30 μM CaCCinh-A01, 30 μM Chicago Sky Blue.
Chloride Free Dye Stimulation Solution consisted of Chloride Free Dye Solution, 10 μM forskolin, 100 μM IBMX, and 300 nM Compound III.
Human intestinal epithelial enteroid cells were obtained from the Hubrecht Institute for Developmental Biology and Stem Cell Research, Utrecht, The Netherlands and expanded in T-Flasks as previously described (Dekkers J F, Wiegerinck C L, de Jonge H R, Bronsveld I, Janssens H M, de Winter-de Groot K M, Brandsma A M, de Jong N W M, Bijvelds M J C, Scholte B J, Nieuwenhuis E E S, van den Brink S, Clevers H, van der Ent C K, Middendorp S and M Beekman J M. A functional CFTR assay using primary cystic fibrosis intestinal organoids. Nat Med. 2013 July; 19(7):939-45.).
3. Enteroid Cell Harvesting and Seeding
Cells were recovered in cell recovery solution, collected by centrifugation at 650 rpm for 5 min at 4° C., resuspended in TrypLE and incubated for 5 min at 37° C. Cells were then collected by centrifugation at 650 rpm for 5 min at 4° C. and resuspended in IEMM containing 10 μM ROCK inhibitor (RI). The cell suspension was passed through a 40 μm cell strainer and resuspended at 1×10^6 cells/mL in IEMM containing 10 μM RI. Cells were seeded at 5000 cells/well into multi-well plates and incubated for overnight at 37° C., 95% humidity and 5% CO2 prior to assay.
4. Membrane Potential Dye, Enteroid Assay A
Enteroid cells were incubated with test compound in IEMM for 18-24 hours at 37° C., 95% humidity and 5% CO2. […] Briefly, cells were washed 5 times in Bath 1 Buffer. Bath 1 Dye Solution was added, and the cells were incubated for 25 min at room temperature. Following dye incubation, cells were washed 3 times in Chloride Free Dye Solution. Chloride transport was initiated by addition of Chloride Free Dye Stimulation Solution and the fluorescence signal was read for 15 min. […] Chloride transport was then expressed as a percentage of the chloride transport following treatment with 3 μM N-[(6-amino-2-pyridyl)sulfonyl]-6-(3-fluoro-5-isobutoxy-phenyl)-2-[(4S)-2,2,4-trimethylpyrrolidin-1-yl]pyridine-3-carboxamide, 3 μM (R)-1-(2,2-difluorobenzo[d][1,3]dioxol-5-yl)-N-(1-(2,3-dihydroxypropyl)-6-fluoro-2-(1-hydroxy-2-methylpropan-2-yl)-1H-indol-5-yl)cyclopropanecarboxamide and 300 nM acute N-[2,4-bis(1,1-dimethylethyl)-5-hydroxyphenyl]-1,4-dihydro-4-oxoquinoline-3-carboxamide triple combination control (% Activity).

CFTR [2] = molecular target: T1, CFTR; assay: Membrane Potential Dye, Enteroid Assay B; format: cell-based
Method in brief: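 Human intestinal enteroid cells exposed to compound 18-24 h at 37 °C, then loaded with methyl oxonol membrane-potential dye plus CaCC blockers. Chloride transport triggered in chloride-free buffer with 10 μM forskolin, 100 μM IBMX, 300 nM Compound III; fluorescence read 15 min, expressed as % of triple-corrector/potentiator combination control.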

[3] = Table 10, read-out: Ent. B EC50

T1 sequence (P13569 with tags, fused parts or gaps DEL508-508): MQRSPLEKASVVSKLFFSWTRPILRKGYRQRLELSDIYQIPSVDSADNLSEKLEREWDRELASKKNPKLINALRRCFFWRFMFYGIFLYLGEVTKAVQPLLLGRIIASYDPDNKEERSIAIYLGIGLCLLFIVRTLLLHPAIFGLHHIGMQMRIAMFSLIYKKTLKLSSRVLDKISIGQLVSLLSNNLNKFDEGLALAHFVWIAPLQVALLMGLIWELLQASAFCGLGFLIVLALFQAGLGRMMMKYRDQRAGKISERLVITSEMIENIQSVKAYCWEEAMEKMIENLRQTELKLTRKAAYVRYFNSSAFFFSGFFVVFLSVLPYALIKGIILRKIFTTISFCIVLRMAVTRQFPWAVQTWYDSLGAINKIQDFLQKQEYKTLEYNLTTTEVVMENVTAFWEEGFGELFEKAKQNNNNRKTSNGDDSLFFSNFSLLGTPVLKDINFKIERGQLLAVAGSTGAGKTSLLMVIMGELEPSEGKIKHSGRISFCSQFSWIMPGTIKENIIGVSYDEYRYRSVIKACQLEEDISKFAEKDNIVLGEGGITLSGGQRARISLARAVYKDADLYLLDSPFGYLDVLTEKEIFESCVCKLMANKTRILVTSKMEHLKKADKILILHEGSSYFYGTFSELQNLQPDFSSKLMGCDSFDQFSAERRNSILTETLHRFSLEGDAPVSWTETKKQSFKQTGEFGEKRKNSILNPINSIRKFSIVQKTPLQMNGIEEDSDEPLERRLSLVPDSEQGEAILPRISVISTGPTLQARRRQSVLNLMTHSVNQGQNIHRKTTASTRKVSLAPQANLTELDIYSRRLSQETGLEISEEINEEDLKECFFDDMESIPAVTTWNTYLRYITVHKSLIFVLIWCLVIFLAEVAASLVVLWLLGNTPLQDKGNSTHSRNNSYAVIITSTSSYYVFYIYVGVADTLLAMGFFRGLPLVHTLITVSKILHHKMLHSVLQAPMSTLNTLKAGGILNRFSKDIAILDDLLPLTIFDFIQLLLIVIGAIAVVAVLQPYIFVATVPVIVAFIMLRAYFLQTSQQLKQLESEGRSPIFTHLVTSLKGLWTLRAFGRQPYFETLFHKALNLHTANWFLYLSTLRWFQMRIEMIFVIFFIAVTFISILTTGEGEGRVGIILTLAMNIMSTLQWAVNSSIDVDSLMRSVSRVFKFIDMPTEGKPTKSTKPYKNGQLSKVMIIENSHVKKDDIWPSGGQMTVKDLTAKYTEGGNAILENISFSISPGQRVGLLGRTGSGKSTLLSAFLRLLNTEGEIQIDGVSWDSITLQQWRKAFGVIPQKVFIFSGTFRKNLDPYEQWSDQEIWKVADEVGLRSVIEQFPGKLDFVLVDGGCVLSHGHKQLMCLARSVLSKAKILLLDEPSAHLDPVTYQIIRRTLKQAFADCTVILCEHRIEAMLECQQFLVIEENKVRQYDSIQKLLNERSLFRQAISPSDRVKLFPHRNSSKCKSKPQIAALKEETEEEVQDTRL

SMILES	Ent. B Max Activity (%) (CFTR [2]; Table 10)	EC50 (CFTR [2]; [3])	Ent. B Max Activity (%) (CFTR [2]; Table 9)	EC50 (CFTR [2]; Table 9, read-out: Ent. B EC50)	further results
Cc1cccc(C)c1-c1cc2nc(n1)NS(=O)(=O)c1cccc(c1)C(=O)N(C1CC3(CCCCC3)C1)[C@H](CC(C)C)CO2 [Compound 338]					Ent. A Max Activity (%) (CFTR [1]): ++ (++ is 30-60%); EC50 (CFTR [1]): < 1000 nM
COC(=O)N1CCC2(CC1)CC(N1C(=O)c3cccc(c3)S(=O)(=O)Nc3cc(cc(-c4c(C)cccc4C)n3)OC[C@H]1CC(C)C)C2 [Compound 196, Methyl 2-[(11R)-6-(2,6-dimethylphenyl)-11-isobutyl-2,2,13-trioxo-9-oxa-2λ^6-thia-3,5,12-triazatricyclo[12.3.1.14,8]nonadeca-1(18),4(19),5,7,14,16-hexaen-12-yl]-7-azaspiro[3.5]nonane-7-carboxylate]					Ent. A Max Activity (%) (CFTR [1]): +++ (+++ is >60%); EC50 (CFTR [1]): < 1000 nM
Cc1cccc(C)c1-c1cc2nc(n1)NS(=O)(=O)c1cccc(c1)C(=O)N([C@H]1C[C@]3(CCCN(C)C3)C1)[C@H](CC(C)C)CO2 [Compound 332]					Ent. A Max Activity (%) (CFTR [1]): +++ (+++ is >60%); EC50 (CFTR [1]): < 1000 nM
Cc1cccc(CO)c1-c1cc2nc(n1)NS(=O)(=O)c1cccc(c1)C(=O)N(C1CC3(CC3)C1)[C@H](CC(C)C)CO2 [Compound 2, (11R)-6-[2-(Hydroxymethyl)-6-methyl-phenyl]-11-isobutyl-2,2-dioxo-12-spiro[2.3]hexan-5-yl-9-oxa-2λ^6-thia-3,5,12,19-tetrazatricyclo[12.3.1.14,8]nonadeca-1(18),4(19),5,7,14,16-hexaen-13-one]	++ (++ is 30-60%)	< 1000 nM			
Cc1cccc(C)c1-c1cc2nc(n1)NS(=O)(=O)c1cccc(c1)C(=O)N([C@@H]1CC[C@@H]1C1CC1)[C@H](CC(C)(C)C)CO2 (single isomer, unassigned) [Compound 147]	++ (++ is 30-60%)	< 1000 nM			
Cc1cccc(C)c1-c1cc2nc(n1)NS(=O)(=O)c1cccc(c1)C(=O)N([C@H]1C[C@@H](OC(C)C)C1)[C@H](CC(C)C)CO2 (single isomer, unassigned) [Compound 46]			+++ (+++ is >60%)	< 1000 nM	
COC(=O)N1CC2(CC(N3C(=O)c4cccc(c4)S(=O)(=O)Nc4nc(cc(-c5c(C)cccc5C)n4)OC[C@H]3CC3(C(F)(F)F)CC3)C2)C1 [Compound 453]			+++ (+++ is >60%)	< 1000 nM	
Cc1cccc(C)c1-c1cc2nc(n1)NS(=O)(=O)c1cccc(c1)C(=O)N(C1CC3(C1)CC(O)(CC(C)C)C3)[C@H](CC(C)(C)C)CO2 (stereo in doubt) [Compound 405]	+++ (+++ is >60%)	< 1000 nM			
Cc1cccc(C)c1-c1cc2nc(n1)NS(=O)(=O)c1cccc(c1)C(=O)N(C1CC3(CC(NC(=O)OC(C)C)C3)C1)[C@H](CC(C)(C)C)CO2 (single isomer, unassigned) [Compound 93]			+++ (+++ is >60%)	< 1000 nM	
Cc1cccc(C)c1-c1cc2nc(n1)NS(=O)(=O)c1cccc(c1)C(=O)N(C1CC(NC(=O)C(C)C)C1)[C@H](CC(C)(C)C)CO2 (single isomer, unassigned) [Compound 444]			+++ (+++ is >60%)	< 1000 nM	
Cc1cccc(C)c1-c1cc2nc(n1)NS(=O)(=O)c1cccc(c1)C(=O)N([C@H]1C[C@@H](OC(C)C)C1)[C@H](CC1(C(F)(F)F)CC1)CO2 (single isomer, unassigned) [Compound 130]			+++ (+++ is >60%)	< 1000 nM	
Cc1cccc(C)c1-c1cc2nc(n1)NS(=O)(=O)c1cccc(c1)C(=O)N(c1cnn(C(C)C)c1)[C@H](CC(C)(C)C)CO2 [Compound 228]	+++ (+++ is >60%)	< 1000 nM			
COC(=O)NC1CC(N2C(=O)c3cccc(c3)S(=O)(=O)Nc3nc(cc(-c4c(C)cccc4C)n3)OC[C@H]2CC2(C(F)(F)F)CC2)C1 (single isomer, unassigned) [Compound 58]			+++ (+++ is >60%)	< 1000 nM	
COC1CC(N2C(=O)c3cccc(c3)S(=O)(=O)Nc3nc(cc(-c4c(C)cccc4C)n3)OC[C@H]2CC(C)C)C1 (some centres unmarked) [Compound 467]					Ent. B Max Activity (%) (CFTR [2]): +++ (+++ is >60%); EC50 (CFTR [2]; read-out: Ent. B EC50): < 1000 nM
COC(=O)NC1(C)CC(N2C(=O)c3cccc(c3)S(=O)(=O)Nc3nc(cc(-c4c(C)cccc4C)n3)OC[C@H]2CC(C)(C)C)C1 (single isomer, unassigned) [Compound 172]	+++ (+++ is >60%)	< 1000 nM			
CCC(=O)NC1CC(N2C(=O)c3cccc(c3)S(=O)(=O)Nc3nc(cc(-c4c(C)cccc4C)n3)OC[C@H]2CC(C)(C)C)C1 (stereo in doubt) [Compound 447]			+++ (+++ is >60%)	< 1000 nM	
Cc1cccc(C)c1-c1cc2nc(n1)NS(=O)(=O)c1cccc(c1)C(=O)N(C1CC3(CC(C(=O)N(C)C)C3)C1)[C@H](CC(C)(C)C)CO2 (single isomer, unassigned) [Compound 114]	+++ (+++ is >60%)	< 1000 nM			
Cc1cccc(C)c1-c1cc2nc(n1)NS(=O)(=O)c1cccc(c1)C(=O)N(C1CC(C)(OC(F)(F)F)C1)[C@H](CC(C)C)CO2 (stereo partly drawn) [Compound 50, (11R)-6-(2,6-dimethylphenyl)-11-isobutyl-12-[3-methyl-3-(trifluoromethoxy)cyclobutyl]-2,2-dioxo-9-oxa-2λ^6-thia-3,5,12,19-tetrazatricyclo[12.3.1.14,8]nonadeca-1(18),4(19),5,7,14,16-hexaen-13-one]	++ (++ is 30-60%)	< 1000 nM			
Cc1cccc(C)c1-c1cc2nc(n1)NS(=O)(=O)c1cccc(c1)C(=O)N(C1CC3(COC(=O)N3C)C1)[C@H](CC(C)(C)C)CO2 (single isomer, unassigned) [Compound 177]	++ (++ is 30-60%)	< 1000 nM			
COC(=O)N(C)C1CC(N2C(=O)c3cccc(c3)S(=O)(=O)Nc3nc(cc(-c4c(C)cccc4C)n3)OC[C@H]2CC(C)(C)C)C1 (single isomer, unassigned) [Compound 169]	+++ (+++ is >60%)	< 1000 nM			
Cc1cccc(C)c1-c1cc2nc(n1)NS(=O)(=O)c1cccc(c1)C(=O)N(C1CC3(CCN(CC(C)(C)C)CC3)C1)[C@H](CC(C)C)CO2 [Compound 279]			+++ (+++ is >60%)	< 1000 nM	
Cc1cccc(C)c1-c1cc2cc(n1)NS(=O)(=O)c1cccc(c1)C(=O)N(C1CC3(CC3)C1)[C@H](CC(C)C)CO2 [Compound 389]					Ent. B Max Activity (%) (CFTR [2]): +++ (+++ is >60%); EC50 (CFTR [2]; read-out: Ent. B EC50): < 1000 nM
COC(=O)NC1CC(N2C(=O)c3cccc(c3)S(=O)(=O)Nc3nc(cc(-c4c(C)cccc4C)n3)OC[C@H]2CC(C)(C)C(F)(F)F)C1 (some centres unmarked) [Compound 418]			+++ (+++ is >60%)	< 1000 nM	
CNC(=O)O[C@H]1C[C@@H](N2C(=O)c3cccc(c3)S(=O)(=O)Nc3nc(cc(-c4c(C)cccc4C)n3)OC[C@H]2CC(C)C)C1 (stereo in doubt) [Compound 361]	++ (++ is 30-60%)	< 1000 nM			
Cc1cccc(C)c1-c1cc2nc(n1)NS(=O)(=O)c1cccc(c1)C(=O)N(C1CC(N(C)C)C1)[C@H](CC1(C(F)(F)F)CC1)CO2 (single isomer, unassigned) [Compound 61]	+++ (+++ is >60%)	< 1000 nM			
